Source: patent US9522160B2, “Ophthalmic formulations” (Inotek Pharmaceuticals Corporation, priority 2013, dated 2016)

Legend:
[1] = system: normotensive monkeys; settings: Compound A in combination with latanoprost; cited from earlier work
[2] = system: retinal ganglion cells; settings: formulation of Compound A; cited from earlier work
[3] = Stability study of a 3% suspension of Compound A (Formulation 3) spiked with latanoprost; latanoprost and latanoprost acid by HPLC; type: physicochemical
Experimental: Latanoprost is added, usually aseptically, to the Formulation after the curing step or after all other formulation steps as described above. For example latanoprost can be spiked into Formulation 3 with Compound A at 3.0% (Example 5 above) to prepare a unit dosage of a combination of Compound A with a concentration of latanoprost of about 50 ug/ml. A stability study has been done to study the stability of a combination of a suspension of Compound A as Formulation 3 and latanoprost. The stability study is described below.
A 10 mL sample of a 3% suspension of Compound A spiked with latanoprost at 50 μg/mL was used for the stability study. Ethanol was used to disperse the latanoprost into the suspension of Compound A. The final solution ethanol target was 0.5% so for 10 mLs of the suspension, the latanoprost was dissolved in 50 μL of ethanol.
For 10 mls of the suspension, 0.5 mg of latanoprost was needed for the spike. A 50 μL sample of a commercial solution containing 10 mg/mL of latanoprost in methyl acetate was taken and the solvent removed under vacuum. The residue was taken up in 50 μL of ethanol.
A 9.950 mL sample of the suspension, taken with a 5 mL autopipette (2×4.975 mL) was spiked with the ethanol solution with mixing.
After taking a 500 μL T0 sample, the bulk solution was divided into 3 containers that were set down at 2-8° C., 25° C./60RH and 40° C./75RH.
The solution in this case would be 0.5 mg in 8.5 mL volume or […] of latanoprost in the suspension. Therefore for analysis, the theoretical latanoprost in solution after a 50% dilution with acetonitrile was 29.4 μg/mL.
A calibration curve of latanoprost acid was also prepared using the commercial solution that contained 10 mg/mL in methyl acetate.
In contrast to the latanoprost standards, these solutions were prepared in 100% acetonitrile.
The solutions injected were 5, 2.5 and 1.25 μg/mL solutions.
The stability samples were prepared by vortex mixing and sonication of the suspension followed by a 50% dilution with acetonitrile. After centrifugation the supernatant was injected on the HPLC.
The assay results are shown below in Table 2 where the calculated concentration is shown in μg/mL. (The theory concentration is 29.4 μg/ml),
4 week samples. For the 4 week 25° C./60 and 40° C./75 samples the calculated latanoprost acid values were 0.4 and 0.3 μg/mL respectively. The impurities increased slightly at 3 months. For the 3 month 25° C./60 and 40° C./75 samples the calculated latanoprost acid values were 0.63 and 3.92 μg/mL respectively.
Except for the 40° C./75 sample at 3 months the values for all other samples were below the calibration curve concentrations and therefore below the detection level of the method.

In the case of `O=[N+]([O-])OC[C@H]1O[C@@H](n2cnc3c(NC4CCCC4)ncnc32)[C@H](O)[C@@H]1O` [Compound A, ((2R,3S,4R,5R)-5-(6-(cyclopentylamino)-9H-purin-9-yl)-3,4-dihydroxytetrahydrofuran-2-yl)methyl nitrate], the IOP reduction [1] is listed as “significant IOP reduction” and the “neuroprotective effect on retinal ganglion cells” value [2] is listed as “neuroprotective effect”.

In the case of `CC(C)OC(=O)CCC/C=C\C[C@@H]1[C@@H](CC[C@@H](O)CCc2ccccc2)[C@H](O)C[C@@H]1O` [Latanoprost, latanoprost], the “Latanoprost Assay Results” value ([3]; 2-8° C., 2 Weeks) is reported as 32.29 µg/mL, the “Latanoprost Assay Results (% T0)” value ([3]; 2-8° C., 2 Weeks) is reported as 109 % T0 and the “Latanoprost Assay Results (% T0)” value ([3]; 2-8° C., 3 Months) is reported as 121.1 % T0. The “Latanoprost Assay Results” value ([3]; 2-8° C., 3 Months, sample contained some latanoprost impurities) was 35.63 µg/mL, the “Latanoprost Assay Results” value ([3]; 2-8° C., 4 Weeks) was 33.97 µg/mL and the “Latanoprost Assay Results (% T0)” value ([3]; 2-8° C., 4 Weeks) was 115 % T0. For the same molecule, the “Latanoprost Assay Results” value ([3]; 25° C./60, 2 Weeks) was 32.37 µg/mL, the “Latanoprost Assay Results (% T0)” value ([3]; 25° C./60, 2 Weeks) was 110 % T0 and the “Latanoprost Assay Results (% T0)” value ([3]; 25° C./60, 3 Months) was 103.5 % T0. For the same molecule, the “Latanoprost Assay Results” value ([3]; 25° C./60, 3 Months, sample contained some latanoprost impurities) was 30.42 µg/mL, the “Latanoprost Assay Results (% T0)” value ([3]; 25° C./60, 4 Weeks) was 112 % T0 and the “Latanoprost Assay Results” value ([3]; 25° C./60, 4 Weeks, sample contained some latanoprost impurities) was 32.90 µg/mL. For the same molecule, the “Latanoprost Assay Results” value ([3]; 40° C./75, 2 Weeks) was 31.35 µg/mL, the “Latanoprost Assay Results (% T0)” value ([3]; 40° C./75, 2 Weeks) was 106 % T0 and the “Latanoprost Assay Results (% T0)” value ([3]; 40° C./75, 3 Months) was 89.0 % T0. For the same molecule, the “Latanoprost Assay Results” value ([3]; 40° C./75, 3 Months, sample contained some latanoprost impurities) was 26.18 µg/mL, the “Latanoprost Assay Results (% T0)” value ([3]; 40° C./75, 4 Weeks) was 101 % T0 and the “Latanoprost Assay Results” value ([3]; 40° C./75, 4 Weeks, sample contained some latanoprost impurities) was 29.90 µg/mL. For the same molecule, the “Latanoprost Assay Results” value ([3]; T0, 3% Compound A suspension spiked with latanoprost, 50% dilution with acetonitrile, theory concentration 29.4 μg/ml) was 29.49 µg/mL.

For `O=C(O)CCC/C=C\C[C@@H]1[C@@H](CC[C@@H](O)CCc2ccccc2)[C@H](O)C[C@@H]1O` [latanoprost acid], the “latanoprost acid present in stability sample” value (shortened to “latanoprost acid present”) ([3]; 2-8° C., 4 week sample) was “No latanoprost acid was present”, the “latanoprost acid present” value ([3]; 2 week samples) was “No latanoprost acid was present” and the “latanoprost acid present” value ([3]; T0 sample) was “No latanoprost acid was present”.
